pIC50: −log10 of the molar value.
Key:
W3110/pdapA1 strain = experiment: Growth of W3110/pdapA1 on M9 media containing AEC; assay type: cell-based, E. coli
Method: (§1) A transformed strain obtained by introducing pdapA1 into a wild type E. coli W3110 strain (available from National Institute of Genetics (Mishima-shi, Shizuoka-ken, Japan)) was designated as W3110/pdapA1, and a transformed strain obtained by introducing pdapA2 into the E. coli W3110 strain was designated as W3110/pdapA2, respectively. These two transformed strains were cultivated respectively in a minimal medium M9 having the following composition to which AEC as an analog of lysine was added. The W3110 strain with no introduced plasmid was also cultivated in the same medium as a control.
(§2) The W3110/pdapA1 strain and the W3110/pdapA2 strain obtained as described above were cultivated on M9 agar plate media containing various concentrations of AEC, respectively. Growth inhibitory concentrations by AEC were examined, and a selection condition was investigated for a strain harboring a plasmid containing dapA*.
(§3) In this table, + indicates growth of transformant, and - indicates no growth.

W3110/pdapA2 strain = experiment: Growth of W3110/pdapA2 on M9 media containing AEC; assay type: cell-based, E. coli; details: for Growth of W3110/pdapA2: M9 agar
Method: as §1, §2, §3

GT3/pLYSC1 strain = experiment: Growth of GT3/pLYSC1 on M9 media containing L-lysine or AEC; assay type: cell-based, E. coli; details: for MIC: Escherichia coli, GT3, read-out: Allotment of addition in which growth was completely suppressed; for Growth of GT3/pLYSC1: M9 agar
Method: (§4) A transformed strain obtained by introducing pLYSC1 into the AK completely deficient strain, E. coli GT3 was designated as GT3/pLYSC1, and a transformed strain obtained by introducing pLYSC2 into the E. coli GT3 was designated as GT3/pLYSC2. A considerable amount of L-lysine was added to the minimal medium M9, and the GT3/pLYSC1 strain and the GT3/pLYSC2 strain were each cultivated. Both of the GT3/pLYSC1 strain and the GT3/pLYSC2 strain harbor plasmids containing the wild type lysC, in which AKIII encoded by lysC on the plasmids is a sole AK. The wild type AKIII as the sole AK is inhibited by L-lysine in the presence of a considerable amount of L-lysine.
(§5) The GT3/pLYSC1 strain and the GT3/pLYSC2 strain were cultivated on M9 agar plate media containing various concentrations of L-lysine or AEC, respectively. Growth inhibitory concentrations by L-lysine and AEC were examined, and a selection condition was investigated for a strain harboring a plasmid containing lysC*.
(§6) In this table, + indicates growth of transformant, ± indicates a little growth, and - indicates no growth.

GT3/pLYSC2 strain = experiment: Growth of GT3/pLYSC2 on M9 media containing L-lysine or AEC; assay type: cell-based, E. coli; details: for Allotment of addition up to which growth was not suppressed: GT3/pLYSC2 strain; for Allotment of addition up to which growth was not suppressed / Growth of GT3/pLYSC2: M9 agar
Method: as §4, §5, §6

W3110 strain = experiment: Growth of W3110 strain with no plasmid in minimal medium M9 with AEC; assay type: cell-based, E. coli; details: W3110 strain having no plasmid
Method: as §1

AKIII = target: T1, AKIII (Escherichia coli, UniProt P08660); experiment: Enzyme activity of AKIII and inhibition by L-lysine (cell-free extract); assay type: biochemical, E. coli
T1 construct: made in house; host or cells: E. coli GT3 (AKI, II, III deficient) transformed with pLYSC1 or its mutant plasmids; cell-free extract, ammonium sulfate pellet redissolved
T1 sequence (P08660 2-449): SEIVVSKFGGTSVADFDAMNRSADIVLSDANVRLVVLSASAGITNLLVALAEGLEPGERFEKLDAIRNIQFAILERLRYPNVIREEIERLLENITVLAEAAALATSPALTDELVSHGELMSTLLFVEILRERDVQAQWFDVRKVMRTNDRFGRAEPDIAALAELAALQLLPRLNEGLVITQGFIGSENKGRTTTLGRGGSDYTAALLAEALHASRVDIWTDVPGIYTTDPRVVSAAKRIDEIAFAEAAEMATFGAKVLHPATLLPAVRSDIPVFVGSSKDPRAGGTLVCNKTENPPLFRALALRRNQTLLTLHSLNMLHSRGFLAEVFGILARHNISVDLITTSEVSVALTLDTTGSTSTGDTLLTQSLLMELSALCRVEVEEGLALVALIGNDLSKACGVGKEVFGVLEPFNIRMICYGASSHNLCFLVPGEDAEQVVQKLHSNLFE
From the text: No. 24, No. 43, No. 48, No. 60, No. 80, No. 117, No. 126, No. 149, No. 150, No. 156, No. 158, No. 167, No. 169 and No. 172 were selected as representative strains of the aforementioned 14 groups. Mutant plasmids derived from pLYSC1 were recovered from each of them, and designated as pLYSC1*24, pLYSC1*43, pLYSC1*48, pLYSC1*60, pLYSC1*80, pLYSC1*117, pLYSC1*126, pLYSC1*149, pLYSC1*150, pLYSC1*156, pLYSC1*158, pLYSC1*167, pLYSC1*169 and pLYSC1*172, respectively. An AK completely deficient strain GT3 was transformed with them and the wild type pLYSC1. A cell-free extract was prepared from each of transformed strains, and the enzyme activity of AKIII was measured.
The cell-free extract (crude enzyme solution) was prepared as follows. A transformed strain was cultivated in a 2 x TY medium, and collected at an OD660 of about 0.8. Cells were washed with 0.02 M KH2 PO4 (pH 6.75)-0.03 M β-mercaptoethanol under a condition of 0° C., and the cells were disrupted by sonication (0° C., 100 W, 30 minutes×4). A disrupted cell solution was centrifuged at 33 krpm for 1 hour under a condition of 0° C. to obtain a supernatant to which ammonium sulfate was added to give 80% saturation. After centrifugation, a pellet was dissolved in 0.02 M KH2 PO4 (pH 6.75)-0.03 M β-mercaptoethanol, and stored at 0° C. overnight.
The enzyme activity of AKIII was measured in accordance with a method of Stadtman et al. (Stadtman, E. R., Cohen, G. N., LeBras, G., and Robichon-Szulmajster, H., J. Biol. Chem., 236, 2033 (1961)). Namely, a reaction solution having the following composition was incubated at 27° C. for 45 minutes, and an FeCl3 solution (2.8 N HCl 0.4 ml+12% TCA 0.4 ml+5% FeCl3 ·6H2 O/0.1 N HCl 0.7 ml) was added thereto to develop a color, and it was centrifuged followed by measurement of absorbance of a supernatant at 540 nm. The activity was indicated by an amount of hydroxamic acid generated per minute (1 U=1 μmol/min). The molar absorption coefficient was 600. Potassium aspartate was removed from the reaction solution to be used as a blank.
In measurement of the enzyme activity of AK, various concentrations of L-lysine were added to the enzyme reaction solution and the degree of inhibition by L-lysine was examined.
On the contrary, although the mutant AKIII's obtained this time had various degrees of desensitization, inhibition by L-lysine was desensitized in all of 14 species. […] The specific activity based on total protein, which might be affected by growth situations of cell and preparation of samples, was equal to or more than that of the wild type in almost all cases, and there was little problem of decrease in activity due to the introduction of mutation (Table 3). According to this fact, it was expected that an active center of AKIII was independent from a regulatory site by L-lysine with each other. In Table 3, the inhibition desensitization degree (%) refers to an AK activity in the presence of 100 mM of L-lysine compared with an AK activity in the absence of L-lysine in the reaction solution. The heat stability (%) refers to a ratio of activity maintenance after a treatment at 55° C. for 1.5 hour.

NCCSC[C@H](N)C(=O)O [AEC, S-2-aminoethylcysteine]
0.2 mM: MIC (GT3/pLYSC1 strain)
+: Growth of W3110/pdapA1 (W3110/pdapA1 strain; M9 agar, AEC 2 mM) | Growth of W3110/pdapA1 (W3110/pdapA1 strain; M9 agar, AEC 4 mM) | Growth of W3110/pdapA1 (W3110/pdapA1 strain; M9 agar, AEC 8 mM) | Growth of W3110/pdapA1 (W3110/pdapA1 strain; M9 agar, AEC 15 mM) | Growth of W3110/pdapA2 (W3110/pdapA2 strain; AEC 2 mM) | Growth of W3110/pdapA2 (W3110/pdapA2 strain; AEC 4 mM) | Growth of W3110/pdapA2 (W3110/pdapA2 strain; AEC 8 mM)
3 mM: Allotment of addition up to which growth was not suppressed (GT3/pLYSC2 strain)
suppressed in growth: Growth in minimal medium M9 to which AEC was added (W3110/pdapA1 strain; W3110/pdapA1) | Growth in minimal medium M9 to which AEC was added (W3110/pdapA2 strain; W3110/pdapA2) | Growth in minimal medium M9 to which AEC was added (W3110 strain)
15 mM: MIC (W3110/pdapA2 strain; Escherichia coli, read-out: Allotment of addition in which growth was suppressed)
±: Growth of GT3/pLYSC2 (GT3/pLYSC2 strain; AEC 0.2 mM) | Growth of GT3/pLYSC2 (GT3/pLYSC2 strain; AEC 0.4 mM) | Growth of GT3/pLYSC2 (GT3/pLYSC2 strain; AEC 0.8 mM) | Growth of GT3/pLYSC2 (GT3/pLYSC2 strain; AEC 1.5 mM) | Growth of GT3/pLYSC2 (GT3/pLYSC2 strain; AEC 3 mM)
-: Growth of W3110/pdapA1 (W3110/pdapA1 strain; M9 agar, AEC 30 mM) | Growth of W3110/pdapA1 (W3110/pdapA1 strain; M9 agar, AEC 60 mM) | Growth of W3110/pdapA1 (W3110/pdapA1 strain; M9 agar, AEC 125 mM) | Growth of W3110/pdapA1 (W3110/pdapA1 strain; M9 agar, AEC 250 mM) | Growth of W3110/pdapA2 (W3110/pdapA2 strain; AEC 15 mM) | Growth of W3110/pdapA2 (W3110/pdapA2 strain; AEC 30 mM) | Growth of W3110/pdapA2 (W3110/pdapA2 strain; AEC 60 mM) | Growth of W3110/pdapA2 (W3110/pdapA2 strain; AEC 125 mM) | Growth of W3110/pdapA2 (W3110/pdapA2 strain; AEC 250 mM) | Growth of GT3/pLYSC1 (GT3/pLYSC1 strain; AEC 0.2 mM) | Growth of GT3/pLYSC1 (GT3/pLYSC1 strain; AEC 0.4 mM) | Growth of GT3/pLYSC1 (GT3/pLYSC1 strain; AEC 0.8 mM) | Growth of GT3/pLYSC1 (GT3/pLYSC1 strain; AEC 1.5 mM) | Growth of GT3/pLYSC1 (GT3/pLYSC1 strain; AEC 3 mM) | Growth of GT3/pLYSC1 (GT3/pLYSC1 strain; AEC 6 mM) | Growth of GT3/pLYSC1 (GT3/pLYSC1 strain; AEC 12 mM) | Growth of GT3/pLYSC1 (GT3/pLYSC1 strain; AEC 25 mM) | Growth of GT3/pLYSC1 (GT3/pLYSC1 strain; AEC 50 mM) | Growth of GT3/pLYSC2 (GT3/pLYSC2 strain; AEC 6 mM) | Growth of GT3/pLYSC2 (GT3/pLYSC2 strain; AEC 12 mM) | Growth of GT3/pLYSC2 (GT3/pLYSC2 strain; AEC 25 mM) | Growth of GT3/pLYSC2 (GT3/pLYSC2 strain; AEC 50 mM)
30 mM: MIC (W3110/pdapA1 strain; Escherichia coli, W3110/pdapA1 strain, M9 agar, read-out: Allotment of addition in which growth was suppressed)

NCCCC[C@H](N)C(=O)O [L-lysine]
100 mM: Allotment of addition up to which growth was not suppressed (GT3/pLYSC2 strain)
±: Growth of GT3/pLYSC2 (GT3/pLYSC2 strain; L-lysine 100 mM)
~3.35: pIC50 (AKIII)
0.2 mM: MIC (GT3/pLYSC1 strain)
-: Growth of GT3/pLYSC1 (GT3/pLYSC1 strain; L-lysine 0.2 mM) | Growth of GT3/pLYSC1 (GT3/pLYSC1 strain; L-lysine 0.4 mM) | Growth of GT3/pLYSC1 (GT3/pLYSC1 strain; L-lysine 0.8 mM) | Growth of GT3/pLYSC1 (GT3/pLYSC1 strain; L-lysine 1.5 mM) | Growth of GT3/pLYSC1 (GT3/pLYSC1 strain; L-lysine 3 mM) | Growth of GT3/pLYSC1 (GT3/pLYSC1 strain; L-lysine 6 mM) | Growth of GT3/pLYSC1 (GT3/pLYSC1 strain; L-lysine 12 mM) | Growth of GT3/pLYSC1 (GT3/pLYSC1 strain; L-lysine 25 mM) | Growth of GT3/pLYSC1 (GT3/pLYSC1 strain; L-lysine 50 mM) | Growth of GT3/pLYSC1 (GT3/pLYSC1 strain; L-lysine 100 mM) | Growth of GT3/pLYSC1 (GT3/pLYSC1 strain; L-lysine 200 mM) | Growth of GT3/pLYSC2 (GT3/pLYSC2 strain; L-lysine 200 mM)
~100%: inhibition at 5000 µM (AKIII; read-out: Inhibition of AKIII)
+: Growth of GT3/pLYSC2 (GT3/pLYSC2 strain; L-lysine 0.2 mM) | Growth of GT3/pLYSC2 (GT3/pLYSC2 strain; L-lysine 0.4 mM) | Growth of GT3/pLYSC2 (GT3/pLYSC2 strain; L-lysine 0.8 mM) | Growth of GT3/pLYSC2 (GT3/pLYSC2 strain; L-lysine 1.5 mM) | Growth of GT3/pLYSC2 (GT3/pLYSC2 strain; L-lysine 3 mM) | Growth of GT3/pLYSC2 (GT3/pLYSC2 strain; L-lysine 6 mM) | Growth of GT3/pLYSC2 (GT3/pLYSC2 strain; L-lysine 12 mM) | Growth of GT3/pLYSC2 (GT3/pLYSC2 strain; L-lysine 25 mM) | Growth of GT3/pLYSC2 (GT3/pLYSC2 strain; L-lysine 50 mM)
suppressed in growth: Growth in minimal medium M9 with a considerable amount of L-lysine (GT3/pLYSC1 strain; GT3/pLYSC1) | Growth in minimal medium M9 with a considerable amount of L-lysine (GT3/pLYSC2 strain; GT3/pLYSC2)

— patent publication US5989875A, “Method of process for producing L-lysine by fermentation” (priority 1995, dated 1999)
